Where “and” joins values, the source holds several entries; their conditions need not be identical. Identical values can stand only once.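 Test compounds were applied to cells in 96-well plates for 48 hours at 5 doses. The concentration for 50% growth inhibition is given as GI50. TGI: concentration producing complete growth inhibition.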
Tests used:
Assay in all cases: growth of human tumour cells (NCI), 48 h
M19-MEL melanoma = test system: M19-MEL melanoma
DMS 273 small cell lung = test system: DMS 273 small cell lung
KM20L2 colon = test system: KM20L2 colon
LXFL 529 NSCLC = test system: LXFL 529 NSCLC
XF 498 CNS = test system: XF 498 CNS
DMS 114 small cell lung = test system: DMS 114 small cell lung
HOP-18 NSCLC = test system: HOP-18 NSCLC
RXF-631 renal = test system: RXF-631 renal
SN12K1 renal = test system: SN12K1 renal
MDA-N = test system: MDA-N

SMILES	TGI (M19-MEL melanoma) [µM]	TGI (DMS 273 small cell lung) [µM]	TGI (KM20L2 colon) [µM]	TGI (LXFL 529 NSCLC) [µM]	TGI (XF 498 CNS) [µM]	TGI (DMS 114 small cell lung) [µM]	TGI (HOP-18 NSCLC) [µM]	TGI (RXF-631 renal) [µM]	TGI (MDA-N) [µM]	also measured
O=C(CC(=O)C1CCOC1=O)C(=O)Nc1ccc(Cl)cc1Cl (stereo not drawn)	> 100	> 100	> 100	> 100	> 100	> 100	–	–	–	–
COC(=O)C(Cc1nc2ccc(Cl)cc2[nH]c1=O)/C(=N/NC(N)=O)C(=O)Nc1ccc(Cl)cc1 (stereo not drawn)	> 100	> 100	> 100	> 100	> 100	> 100	> 100	> 100	–	–
COCCOCC(=O)N(CCn1ccc(NC(c2ccccc2)(c2ccccc2)c2ccccc2)nc1=O)CCn1cnc2nc(N)[nH]c(=O)c21	–	> 100	> 100	> 100	–	> 100	> 100	> 100	–	–
Cn1c2c(c3ccccc31)CCN(CCCCN1CCN(c3cccc(Cl)c3)CC1)C2=O	25.5	22.9	15.5	23.7	28	10.7	> 100	–	–	–
CCCCCCCCCCCCN(O)C(=O)c1ccccc1	> 100	–	> 100	> 100	> 100	–	> 100	–	–	–
O=C(O)Cn1c(=O)[nH]c(=O)c2c1ncn2Cc1ccccc1	> 100	> 100	> 100	> 100	> 100	> 100	–	> 100	–	–
Cc1ccc2[nH]c3c(ncc4[nH]c5ccccc5c43)c2c1	–	–	31.8	33.3	35.8	31.3	28.1	–	–	–
Nc1nc(N)c2nc(CNc3ccc(C(=O)NC(CCCNC(=O)c4ccccc4C(=O)O)C(=O)O)cc3)cnc2n1 (stereo not drawn)	> 100	> 100	> 100	> 100	> 100	> 100	> 100	–	> 100	GI50 (M19-MEL melanoma): 0.122 µM; TGI (SN12K1 renal): > 100 µM; GI50 (HOP-18 NSCLC): 24.8 µM and 98 µM; GI50 (MDA-N): 0.00127 µM; GI50 (DMS 114 small cell lung): < 0.01 µM and 0.000327 µM
COC1=Nc2ccccc2S(=O)(=O)C=C1	–	–	–	–	–	–	–	–	20.8	–
CN(C)c1n/c(=N/c2ncn[nH]2)ss1	> 100	> 100	> 100	> 100	> 100	> 100	> 100	–	–	–
COc1ccc(-c2cc(=O)c3c(O)cc(C)cc3o2)cc1OC	–	–	–	–	–	–	–	–	> 100	–
CC/C(C)=C1\OC(=O)C(C)C(O)C(Cc2cccnc2)NC(=O)C(NC(=O)c2ncccc2O)C(C)OC1=O (stereo not drawn)	–	–	–	–	–	–	–	–	> 100	–
CC(C)(C)C(=O)O[C@@H]1COC2C(O)COC21 (stereo partly drawn)	> 100	> 100	–	> 100	> 100	> 100	> 100	> 100	–	–
N#CC1(C=O)c2ccccc2C=CN1C(=O)c1ccccc1 (stereo not drawn)	> 100	> 100	> 100	> 100	69.6	49	> 100	> 100	–	–
CC(=O)[O-].O=C([CH-]C(=O)c1ccccc1)c1ccccc1.O=C([CH-]C(=O)c1ccccc1)c1ccccc1.[Y+3]	–	–	26.3	–	–	–	–	–	–	GI50 (KM20L2 colon): 6.51 µM
COc1ccc(/C(=N/NC(N)=O)C(c2ccc(OC)cc2)C2C(=O)Oc3ccccc32)cc1 (stereo not drawn)	> 100	> 100	> 100	> 100	> 100	> 100	–	> 100	–	–
O=C1c2c(O)cc(O)cc2OC(c2ccc(O)cc2O)C1O (stereo not drawn)	–	–	–	–	–	–	–	–	> 100	–
COc1cccc2[nH]c(-c3ccccn3)nc12	–	–	–	–	–	–	–	–	> 100	–
COc1cc([C@@H]2c3cc4c(cc3[C@@H](NC(=O)c3cccc(F)c3)C3COC(=O)[C@@H]32)OCO4)cc(OC)c1O (stereo partly drawn)	41.4	11.3	6.89	> 100	–	5.2	> 100	–	–	–
CN(C)c1ccc(/C=N\N2C(=O)c3ccccc3C2=O)cc1	> 100	> 100	> 100	> 100	> 100	> 100	> 100	–	–	–

SMILES	TGI (M19-MEL melanoma) [µM]	TGI (DMS 273 small cell lung) [µM]	TGI (KM20L2 colon) [µM]	TGI (LXFL 529 NSCLC) [µM]	TGI (XF 498 CNS) [µM]	TGI (DMS 114 small cell lung) [µM]	TGI (HOP-18 NSCLC) [µM]	TGI (RXF-631 renal) [µM]	TGI (MDA-N) [µM]	also measured
O=[N+]([O-])c1ccc(Sc2c3ccccc3nc3ccccc23)nc1	–	–	–	–	–	–	–	–	17.6	–
O=C1C2c3[nH]c4ccccc4c3[C@@H]3CCCCC3C2C(=O)N1c1ccccc1 (stereo partly drawn)	34.8	35.3	–	39.6	–	58.4	–	34.2	–	–
c1ccc(COCC2OC3c4ccccc4COC3C2OCc2ccccc2)cc1 (stereo not drawn)	> 100	> 100	> 100	–	–	> 100	> 100	> 100	–	–
CSc1ccc(/C=C/c2ccnc3ccccc23)cc1	–	–	–	–	–	–	–	–	27	–
COc1ccc(CNc2nc3c(NC(C)=O)cc(C(F)(F)F)cc3nc2-c2ccccc2)cc1OC	> 100	> 100	> 100	> 100	> 100	> 100	–	–	–	–
COC(OC)[C@@H](C)[C@H](O)[C@](C)(O)C1OC(C)(C)OC(C(C)C=C(C)C)C1C (stereo partly drawn)	> 100	> 100	> 100	> 100	> 100	> 100	> 100	–	–	–
Cn1c(=S)c2[nH]c(SCCN3CCCC3)nc2n(C)c1=O	–	–	–	–	–	–	–	–	> 100	–
O=C(NO)C(=O)Nc1ccc(Cl)cc1[N+](=O)[O-]	> 100	> 100	> 100	> 100	–	> 100	> 100	> 100	–	–
Cc1cc(C)c(S(=O)(=O)ONC(=O)OC(C)(C)C)c(C)c1	> 100	> 100	–	> 100	> 100	–	–	> 100	–	–
CCOC(=O)NC(=O)c1cn(CCN2CCN(C(=O)CCCCCCCCCCNc3ncnc4nc[nH]c34)CC2)c(=O)[nH]c1=O	> 100	> 100	> 100	> 100	–	–	> 100	–	–	–
CNC1C(O)C(OC2C(N)CC(N)C(OC3OC(C(C)O)C(O)C(O)C3N)C2O)OCC1(C)O (stereo not drawn)	–	–	–	–	–	–	–	–	> 100	–
COc1ccc(C(=O)/C=C/c2ccc(OCC(=O)N3CCN(c4ccccc4)CC3)cc2)cc1	> 100	> 100	> 100	> 100	> 93.9	> 100	> 100	–	> 100	–
CCC(C(=O)[O-])C(=O)[O-].CCC(C(=O)[O-])C(=O)[O-].N.N.NCCCCCCN.[Pt+4].[Pt+4]	–	16.4	29	5.12	–	–	11.5	–	–	GI50 (HOP-18 NSCLC): 4.92 µM; GI50 (DMS 273 small cell lung): 8.32 µM; GI50 (KM20L2 colon): 15 µM; GI50 (LXFL 529 NSCLC): 2.37 µM
O=C(NCCCCCCCCNC(=O)c1cccc2ccccc12)c1cccc2ccccc12	> 100	> 100	> 100	> 100	20.9	> 100	> 81.4	> 82	> 100	–
CC1=C(c2cc(C(=O)Nc3cccc(C(F)(F)F)c3)ncn2)Sc2ccccc2N1	> 100	> 100	> 100	> 100	> 100	> 100	> 100	–	–	–
O=C([O-])c1ccc(C(=O)[O-])cc1.O=C([O-])c1ccc(C(=O)[O-])cc1.[Mo+2].[Mo+2]	> 100	> 100	> 100	> 100	> 100	–	> 100	> 100	–	GI50 (M19-MEL melanoma): > 100 µM; GI50 (HOP-18 NSCLC): > 100 µM; GI50 (DMS 273 small cell lung): > 100 µM; GI50 (KM20L2 colon): > 100 µM; GI50 (LXFL 529 NSCLC): > 100 µM; GI50 (XF 498 CNS): > 100 µM; GI50 (RXF-631 renal): > 100 µM
Cc1nc(Nc2ccc([N+](=O)[O-])cc2)sc1C(/C=C/c1ccc(N(C)C)cc1)=N/NC(=O)c1ccccc1	> 100	–	> 100	> 100	> 100	> 100	> 100	> 100	–	–
C[C@H]1C(Oc2ccc(O)cc2)OC2OC3(C)CCC4[C@H](C)CCC1C24OO3 (stereo partly drawn)	–	–	–	–	–	–	–	–	26.4	GI50 (MDA-N): 11.1 µM
OC(c1ccccn1)C1CNc2ccccc21 (stereo not drawn)	> 100	> 100	> 100	> 100	> 100	> 100	–	–	–	–
NC(=O)/C=C/NC(=O)/C=N\O	–	–	–	–	–	–	–	–	> 100	–

— PubChem BioAssay (NCI)
